From paper PMC7822176, “Pursuing the Complexity of Alzheimer’s Disease: Discovery of Fluoren-9-Amines as Selective Butyrylcholinesterase Inhibitors and N-Methyl-D-Aspartate Receptor Antagonists” (Biomolecules, 2020)
Where a name gives a salt, the structure may show the parent alone. Read-outs that look alike come from different tables or passages of the source.

Columns and labels:
[1] = MTT cell viability assay, CHO-K1; format: cell-based; details: Chinese hamster, CHO-K1 cells, 24 h exposure, mean of three independent measurements, read-out: IC50 ± SEM CHO-K1 cell viability
Method: (§1) Standard MTT assay (3-(4,5-dimethylthiazol-2-yl)-2,5-diphenyltetrazolium bromide; Sigma Aldrich, Prague, Czech Republic) was used according to the manufacturer’s protocols on the CHO-K1 (Chinese hamster ovary, ECACC, Salisbury, UK) and hCMEC/D3 (Sigma Aldrich, St. Louis, MO, USA). The cells were cultured according to recommended conditions and seeded in a density of 8000 cells per well, as described previously. […] CHO-K1 cells were exposed to serially diluted tested compounds for 24 h. Then, the medium was replaced by a fresh medium containing 0.5 mg/mL of MTT, and the cells were allowed to produce formazan for another approximately 3 h under surveillance. Thereafter, the medium with MTT was removed, and crystals of formazan were dissolved in DMSO (100 µL/well; PENTA s.r.o., Prague, Czech Republic). Cell viability was assessed spectrophotometrically by the amount of formazan produced. The absorbance was measured at 570 nm with a 650-nm reference wavelength on Synergy HT (BioTek, Winooski, VT, USA). The IC50 value (half-maximal inhibitory concentration) was calculated from the control-subtracted triplicates using nonlinear regression (four parameters) by GraphPad Prism 7.03 software (GraphPad Software Inc., San Diego, CA, USA) for the CHO-K1 cell line, and for hCMEC/D3 cells, the cell viability was expressed as the % relative to the untreated control. Final IC50 and SEM (standard error of the mean) values were obtained as a mean of three independent measurements.

hBChE = target: T1, hBChE (Homo sapiens, UniProt P06276); assay: biochemical; format: biochemical
T1 construct: made in house
T1 sequence (P06276 29-602): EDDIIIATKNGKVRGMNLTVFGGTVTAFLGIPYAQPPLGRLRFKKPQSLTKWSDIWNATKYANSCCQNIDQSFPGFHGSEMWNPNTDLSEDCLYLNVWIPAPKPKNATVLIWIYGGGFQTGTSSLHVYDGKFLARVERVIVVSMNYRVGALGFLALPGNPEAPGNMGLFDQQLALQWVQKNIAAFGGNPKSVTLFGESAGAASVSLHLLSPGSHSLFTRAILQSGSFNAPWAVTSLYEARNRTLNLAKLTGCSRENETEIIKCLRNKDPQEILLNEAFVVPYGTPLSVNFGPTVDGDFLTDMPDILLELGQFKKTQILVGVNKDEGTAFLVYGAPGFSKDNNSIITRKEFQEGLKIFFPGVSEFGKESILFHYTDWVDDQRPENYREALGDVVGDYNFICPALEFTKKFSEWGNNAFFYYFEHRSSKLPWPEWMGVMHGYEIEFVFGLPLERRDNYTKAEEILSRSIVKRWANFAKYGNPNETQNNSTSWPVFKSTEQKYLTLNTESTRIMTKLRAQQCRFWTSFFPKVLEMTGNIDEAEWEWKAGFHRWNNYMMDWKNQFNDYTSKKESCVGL
Method: The human recombinant BChE and AChE were prepared at the Department of Toxicology and Military Pharmacy (Faculty of Military Health Sciences, Hradec Kralove, Czech Republic). 5,5′-dithiobis(2-nitrobenzoic acid) (Ellman’s reagent, DTNB), phosphate buffer (PB, pH 7.4), acetylthiocholine (ATC), and butyrylthiocholine (BTC) were purchased from Sigma-Aldrich, Prague, Czech Republic. For measuring purposes, polystyrene Nunc 96-well microplates with a flat bottom shape (Thermo Fisher Scientific, Waltham, MA, USA) were utilized. All the assays were carried out in 0.1-M KH2PO4/K2HPO4 buffer, pH 7.4. Enzyme solutions were prepared at 2.0 units/mL in 2-mL aliquots. […] Tested compounds were preincubated for 5 min. The reaction was started by the immediate addition of 20 µL of the substrate. […] Each concentration was assayed in triplicate. Software GraphPad Prism 5 (San Diego, CA, USA) was used for the statistical data evaluation.

GluN1/GluN2A receptors = target: T2, GluN1/GluN2A receptors (Homo sapiens, UniProt Q05586+Q12879); assay: cell-based; details: for inhibition at 10 µM: HEK293, read-out: RI (%) ± SEM GluN1/GluN2A
T2 construct: expressed in transfected cells; host or cells: HEK293
T2 sequence (Q12879 23-1464, other chains not shown): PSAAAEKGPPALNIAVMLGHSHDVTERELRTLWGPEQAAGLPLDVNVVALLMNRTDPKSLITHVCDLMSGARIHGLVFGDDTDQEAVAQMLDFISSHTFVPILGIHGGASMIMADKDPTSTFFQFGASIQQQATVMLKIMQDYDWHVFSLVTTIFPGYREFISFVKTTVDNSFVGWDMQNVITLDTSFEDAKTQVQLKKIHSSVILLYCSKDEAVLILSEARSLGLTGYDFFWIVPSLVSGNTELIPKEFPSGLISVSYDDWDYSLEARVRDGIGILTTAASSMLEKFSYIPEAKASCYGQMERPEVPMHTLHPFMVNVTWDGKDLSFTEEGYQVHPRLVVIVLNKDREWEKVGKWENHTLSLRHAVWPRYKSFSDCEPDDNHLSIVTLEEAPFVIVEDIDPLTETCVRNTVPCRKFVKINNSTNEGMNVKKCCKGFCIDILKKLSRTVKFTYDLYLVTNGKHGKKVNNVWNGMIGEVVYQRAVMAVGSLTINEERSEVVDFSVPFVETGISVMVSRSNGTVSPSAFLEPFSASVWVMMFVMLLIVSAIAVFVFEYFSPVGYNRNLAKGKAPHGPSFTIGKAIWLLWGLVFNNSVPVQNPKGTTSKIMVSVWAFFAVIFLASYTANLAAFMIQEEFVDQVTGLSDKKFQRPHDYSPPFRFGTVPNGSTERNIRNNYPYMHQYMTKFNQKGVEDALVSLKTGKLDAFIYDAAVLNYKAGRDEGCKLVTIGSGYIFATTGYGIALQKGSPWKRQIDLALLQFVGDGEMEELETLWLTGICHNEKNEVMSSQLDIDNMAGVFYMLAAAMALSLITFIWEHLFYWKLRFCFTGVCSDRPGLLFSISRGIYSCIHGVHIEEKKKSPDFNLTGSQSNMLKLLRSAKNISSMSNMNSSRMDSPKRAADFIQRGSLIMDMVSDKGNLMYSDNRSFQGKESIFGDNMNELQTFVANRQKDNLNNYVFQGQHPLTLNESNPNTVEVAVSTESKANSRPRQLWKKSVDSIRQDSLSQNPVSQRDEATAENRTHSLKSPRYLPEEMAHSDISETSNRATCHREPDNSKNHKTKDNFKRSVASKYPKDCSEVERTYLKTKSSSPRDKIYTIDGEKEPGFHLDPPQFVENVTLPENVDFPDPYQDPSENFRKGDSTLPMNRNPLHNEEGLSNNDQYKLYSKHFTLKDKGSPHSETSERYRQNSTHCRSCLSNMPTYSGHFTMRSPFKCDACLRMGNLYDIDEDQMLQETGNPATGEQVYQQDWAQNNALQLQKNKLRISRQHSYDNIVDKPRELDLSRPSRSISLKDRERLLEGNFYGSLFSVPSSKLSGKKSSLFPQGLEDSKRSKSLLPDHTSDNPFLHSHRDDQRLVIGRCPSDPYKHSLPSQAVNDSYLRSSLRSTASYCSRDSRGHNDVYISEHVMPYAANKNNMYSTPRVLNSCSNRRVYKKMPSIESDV
Method: (§2) The cells grown in a 24-well plate were put in Opti-MEM I media containing a mixture of 0.9 µL of MATra-A Reagent (IBA) and 900 ng of DNA vectors carrying the human versions of the GluN1-1a (GluN1), GluN2A, or GluN2B subunits and green fluorescent protein (GFP; all vectors were added in equal ratio). The cells were placed on a strong magnet plate for 30 min and then trypsinized; resuspended in Opti-MEM I containing 1% FBS, 20-mM MgCl2, and 3-mM kynurenic acid (to inhibit the NMDAR-induced excitotoxicity); and plated on poly-L-lysine-coated glass coverslips. The electrophysiological experiments were executed 24–48 h after transfection.
(§3) Whole-cell patch-clamp recordings were conducted at room temperature on the GFP-positive HEK293 cells using an Axopatch 200B amplifier (Molecular Devices, San Jose, CA, USA); the series resistance compensation was >80% for all cells. […] The WAS02 application system, which can reach the solution exchange time around the recorded cell of 10–20 ms, was used to apply the extracellular solution (ECS).

GluN1/GluN2B receptors = target: T3, GluN1/GluN2B receptors (Homo sapiens, UniProt Q05586+Q13224); assay: cell-based; details: for inhibition at 10 µM: HEK293, read-out: RI (%) ± SEM GluN1/GluN2B
T3 construct: expressed in transfected cells; host or cells: HEK293
T3 sequence (Q13224 27-1484, other chains not shown): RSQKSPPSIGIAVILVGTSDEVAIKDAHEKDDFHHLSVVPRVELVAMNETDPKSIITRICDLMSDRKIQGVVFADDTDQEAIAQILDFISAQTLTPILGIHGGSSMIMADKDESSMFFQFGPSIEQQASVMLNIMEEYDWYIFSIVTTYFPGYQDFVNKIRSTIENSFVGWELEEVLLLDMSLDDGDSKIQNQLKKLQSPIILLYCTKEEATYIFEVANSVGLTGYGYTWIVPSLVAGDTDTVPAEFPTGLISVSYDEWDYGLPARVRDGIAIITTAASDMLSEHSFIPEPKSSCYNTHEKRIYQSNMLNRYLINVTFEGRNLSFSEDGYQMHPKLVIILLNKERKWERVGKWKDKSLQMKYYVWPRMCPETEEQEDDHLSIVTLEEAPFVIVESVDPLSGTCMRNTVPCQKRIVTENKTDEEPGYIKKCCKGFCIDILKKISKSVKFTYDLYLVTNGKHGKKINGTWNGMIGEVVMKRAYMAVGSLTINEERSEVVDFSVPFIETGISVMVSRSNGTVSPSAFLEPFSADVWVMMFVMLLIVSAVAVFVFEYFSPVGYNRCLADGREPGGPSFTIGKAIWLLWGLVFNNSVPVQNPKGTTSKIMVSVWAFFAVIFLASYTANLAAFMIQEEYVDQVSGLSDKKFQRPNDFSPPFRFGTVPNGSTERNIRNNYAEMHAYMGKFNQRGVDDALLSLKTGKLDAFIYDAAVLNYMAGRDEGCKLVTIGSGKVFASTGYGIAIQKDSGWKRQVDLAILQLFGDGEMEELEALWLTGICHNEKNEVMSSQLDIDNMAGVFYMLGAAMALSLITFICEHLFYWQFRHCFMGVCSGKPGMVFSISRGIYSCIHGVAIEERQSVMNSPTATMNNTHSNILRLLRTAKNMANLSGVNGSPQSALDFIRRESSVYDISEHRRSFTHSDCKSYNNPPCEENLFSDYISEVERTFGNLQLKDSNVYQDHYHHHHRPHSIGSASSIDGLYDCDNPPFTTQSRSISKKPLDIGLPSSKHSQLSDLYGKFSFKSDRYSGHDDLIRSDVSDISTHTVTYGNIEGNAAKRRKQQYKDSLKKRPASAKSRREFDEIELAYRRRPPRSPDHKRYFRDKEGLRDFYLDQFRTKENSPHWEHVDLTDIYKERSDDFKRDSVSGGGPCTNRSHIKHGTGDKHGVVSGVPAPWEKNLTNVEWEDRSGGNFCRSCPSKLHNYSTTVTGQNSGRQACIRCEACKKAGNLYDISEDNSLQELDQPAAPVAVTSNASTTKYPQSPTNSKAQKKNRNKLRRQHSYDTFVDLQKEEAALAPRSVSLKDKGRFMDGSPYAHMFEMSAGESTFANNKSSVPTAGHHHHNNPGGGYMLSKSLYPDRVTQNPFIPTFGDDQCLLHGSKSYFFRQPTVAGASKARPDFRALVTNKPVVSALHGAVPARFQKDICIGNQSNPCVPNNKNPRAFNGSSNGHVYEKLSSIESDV
Method: as §2, §3

[2] = MTT cell viability test, hCMEC/D3; format: cell-based; details: human, hCMEC/D3 cells, read-out: % viable cells hCMEC/D3
Method: as §1, with “The IC50 value (half-maximal inhibitory concentration) was calculated from the control-subtracted triplicates using nonlinear regression (four parameters) by GraphPad Prism 7.03 software (GraphPad Software Inc., San Diego, CA, USA) for the CHO-K1 cell line, and for hCMEC/D3 cells, the cell viability was expressed as the % relative to the untreated control.” left out

in vitro = details: human
Method: (§4) The D3 assay evaluates the ability of compounds to diffuse from the donor compartment through the D3/hCMEC cell membrane into the acceptor compartment. The D3 cells were seeded on a PET membrane (area 1.12 cm^2) with 3-µm pores of the 12-well plates with 12-mm inserts. […] The donor solution (750 µL) was added to the donor compartment (insert), and the same volume of Opti-MEM was added into the acceptor. The concentration of the drug in both compartments was measured by UV-VIS spectrophotometry in 5, 15, 30, and 60 min of incubation in triplicates. The apparent permeability coefficient (Papp) was calculated from the concentration ratios. Tightness of the D3 monolayer was conducted by the fluorescein isothiocyanate (FITC) test after each experiment. […] (1) Papp= dC/dt × Vr/A × C0 • A: area of the well/cell monolayer, • dC/dt: amount in the receiver compartment in given time, • Vr: volume of the receiver compartment, and • C0: the initial concentration of tested compounds.

hCMEC/D3 cell monolayer = assay: in vitro; details: for potential of BBB permeation (in words): Papp correlated to reference drugs
Method: as §4

[3] = mean of at least three experiments, read-out: IC50 ± SEM hBChE
[4] = final prediction from Papp correlated to reference drugs

SMILES	IC50 at 24 h [1]	IC50 (hBChE; [3])	inhibition at 10 µM (GluN1/GluN2A receptors)	inhibition at 10 µM (GluN1/GluN2B receptors)	Papp (in vitro)	also measured
CCN1CCN(C2c3ccccc3-c3ccccc32)CC1 [Compound 3k, 1-(9H-fluorene-9-yl)-4-ethylpiperazine dihydrochloride]	239 ± 35 µM	12.8 ± 0.3 µM	32.1 ± 1.01%	19.1 ± 1.48%	–	–
c1ccc2c(c1)-c1ccccc1C2N1CCCCC1 [Compound 3f, 1-(9H-fluoren-9-yl)piperidine hydrochloride]	872 ± 10 µM	2.13 ± 0.06 µM	33 ± 1.96%	19.4 ± 2.65%	–	–
CC(C)CNC1c2ccccc2-c2ccccc21.Cl [Compound 3n, N-(2-methylpropyl)-9H-fluoren-9-amine hydrochloride]	236 ± 24 µM	–	37.9 ± 2.43%	49.7 ± 1.72%	14.6 ± 1.88 ×10⁻⁶ cm/s	viability at 50 µM [2]: 98.2%; viability at 100 µM [2]: 92.7%; potential of BBB permeation (in words) (hCMEC/D3 cell monolayer): low potential to passively pass the BBB; CNS (+/−) (hCMEC/D3 cell monolayer; [4]): CNS −
c1ccc2c(c1)-c1ccccc1C2N1CCCC1 [Compound 3o, 1-(9H-fluoren-9-yl)pyrrolidine hydrochloride]	413 ± 15 µM	1.8 ± 0.06 µM	27.8 ± 1.74%	32.4 ± 2.99%	–	–
Cc1cc(=O)n(-c2ccccc2)n1C [Antipyrine, reference compound]	–	–	–	–	17.2 ± 1.82 ×10⁻⁶ cm/s	CNS (+/−) (hCMEC/D3 cell monolayer; [4]): CNS +
CCCCNC1c2ccccc2-c2ccccc21.Cl [Compound 3m, N-Butyl-9H-fluoren-9-amine hydrochloride]	140 ± 15 µM	1.02 ± 0.03 µM	36.2 ± 3.73%	51.2 ± 3.24%	18.5 ± 2.37 ×10⁻⁶ cm/s	viability at 50 µM [2]: 82.1%; viability at 100 µM [2]: 80.1%; potential of BBB permeation (in words) (hCMEC/D3 cell monolayer): corresponds to those of standard drugs with high CNS permeability; CNS (+/−) (hCMEC/D3 cell monolayer; [4]): CNS +; h 40 mV GluN1/GluN2A (Hill coefficient) (GluN1/GluN2A receptors; 40 mV): 1.23 ± 0.13; IC50 (GluN1/GluN2A receptors; 40 mV, read-out: IC50 40 mV GluN1/GluN2A): 114 ± 26.6 µM; h −60 mV GluN1/GluN2A (Hill coefficient) (GluN1/GluN2A receptors; −60 mV): 1.19 ± 0.14; IC50 (GluN1/GluN2A receptors; −60 mV, read-out: IC50 −60 mV GluN1/GluN2A): 14.2 ± 1.6 µM; h 40 mV GluN1/GluN2B (Hill coefficient) (GluN1/GluN2B receptors; 40 mV): 0.97 ± 0.10; IC50 (GluN1/GluN2B receptors; 40 mV, read-out: IC50 40 mV GluN1/GluN2B): 221 ± 12.2 µM; h −60 mV GluN1/GluN2B (Hill coefficient) (GluN1/GluN2B receptors; −60 mV): 1.12 ± 0.05; IC50 (GluN1/GluN2B receptors; −60 mV, read-out: IC50 −60 mV GluN1/GluN2B): 11.7 ± 1.72 µM
COCCNC1c2ccccc2-c2ccccc21 [Compound 3g, N-(2-methoxyethyl)-9H-fluoren-9-amine hydrochloride]	738 ± 1 µM	2.56 ± 0.11 µM	18.7 ± 1.98%	6.76 ± 1%	–	–
CCN(C)C(=O)Oc1cccc([C@H](C)N(C)C)c1 [Rivastigmine, reference compound]	–	–	–	–	28.6 ± 4.64 ×10⁻⁶ cm/s	CNS (+/−) (hCMEC/D3 cell monolayer): CNS +
CN1CCN(C2c3ccccc3-c3ccccc32)CC1 [Compound 3j, 1-(9H-fluorene-9-yl)-4-methylpiperazine dihydrochloride]	259 ± 12 µM	–	29.1 ± 2.85%	21.9 ± 2.1%	–	IC50 (hBChE): 23.5 ± 0.8 µM
CCN(CC)C1c2ccccc2-c2ccccc21 [Compound 3i, N,N-Diethyl-9H-fluoren-9-amine hydrochloride]	266 ± 3 µM	5.38 ± 0.11 µM	25.7 ± 1.92%	20.1 ± 2.82%	–	–
CC(C)NCC(O)COc1cccc2ccccc12 (centres unmarked) [Propranolol, reference compound]	–	–	–	–	23.1 ± 2.06 ×10⁻⁶ cm/s	CNS (+/−) (hCMEC/D3 cell monolayer; [4]): CNS +
c1ccc2c(c1)-c1ccccc1C2N1CCOCC1 [Compound 3l, 4-(9H-fluorene-9-yl)morpholine hydrochloride]	> 800 µM	54.7 ± 1.9 µM	14.9 ± 1.76%	11.6 ± 0.52%	–	–
CNC1c2ccccc2-c2ccccc21 [Compound 3b, N-Methyl-9H-fluoren-9-amine hydrochloride]	427 ± 12 µM	8.91 ± 0.31 µM	36.2 ± 2.16%	18 ± 0.78%	–	–
CC(C)NC1c2ccccc2-c2ccccc21 [Compound 3a, N-Propan-2-yl-9H-fluoren-9-amine hydrochloride]	387 ± 32 µM	–	33.3 ± 1.66%	25 ± 1.82%	–	–
CC12CC3CC(C)(C1)CC(N)(C3)C2 [Memantine, memantine, reference compound]	–	–	–	–	–	h 40 mV GluN1/GluN2A (Hill coefficient) (GluN1/GluN2A receptors): 1.16 ± 0.05; h −60 mV GluN1/GluN2A (Hill coefficient) (GluN1/GluN2A receptors): 1.04 ± 0.06; h 40 mV GluN1/GluN2B (Hill coefficient) (GluN1/GluN2B receptors): 0.84 ± 0.04; h −60 mV GluN1/GluN2B (Hill coefficient) (GluN1/GluN2B receptors): 1.04 ± 0.03
c1ccc2c(c1)-c1ccccc1C2NC1CC1 [Compound 3d, N-Cyclopropyl-9H-fluoren-9-amine hydrochloride]	353 ± 32 µM	6.42 ± 0.22 µM	26.6 ± 0.85%	14.3 ± 0.35%	–	–
CCNC1c2ccccc2-c2ccccc21 [Compound 3h, N-Ethyl-9H-fluoren-9-amine hydrochloride]	417 ± 16 µM	6.58 ± 0.19 µM	26.9 ± 2.14%	17.5 ± 2.46%	–	–
O/N=C/c1cc[n+](COC[n+]2ccc(/C=N/O)cc2)cc1 [Obidoxime, reference compound]	–	–	–	–	14.3 ± 0.52 ×10⁻⁶ cm/s	CNS (+/−) (hCMEC/D3 cell monolayer; [4]): CNS −
